Measurements as given in BindingDB's records for doi:10.1016/j.ejmech.2009.09.025 (2010).

Assays:
[1] = biological target: Glutamate receptor ionotropic, kainate 2 (GluK2/GRIK2) (Homo sapiens) (UniProt Q13002); assay: Antagonist activity at human recombinant GluR6 expressed in HEK cells coexpressing aequorine assessed as inhibition of glutamate-induced Ca2+ influx at 10 uM by luminescence reporter assay
[2] = biological target: Glutamate receptor ionotropic, kainate 1 (GluK1/GRIK1) (Homo sapiens) (UniProt P39086); assay: Antagonist activity at human recombinant GluR5 expressed in HEK cells coexpressing aequorine assessed as inhibition of glutamate-induced Ca2+ influx by luminescence reporter assay
Sequence of Glutamate receptor ionotropic, kainate 1 (GluK1/GRIK1) (Homo sapiens) (P39086 whole entry, looked up): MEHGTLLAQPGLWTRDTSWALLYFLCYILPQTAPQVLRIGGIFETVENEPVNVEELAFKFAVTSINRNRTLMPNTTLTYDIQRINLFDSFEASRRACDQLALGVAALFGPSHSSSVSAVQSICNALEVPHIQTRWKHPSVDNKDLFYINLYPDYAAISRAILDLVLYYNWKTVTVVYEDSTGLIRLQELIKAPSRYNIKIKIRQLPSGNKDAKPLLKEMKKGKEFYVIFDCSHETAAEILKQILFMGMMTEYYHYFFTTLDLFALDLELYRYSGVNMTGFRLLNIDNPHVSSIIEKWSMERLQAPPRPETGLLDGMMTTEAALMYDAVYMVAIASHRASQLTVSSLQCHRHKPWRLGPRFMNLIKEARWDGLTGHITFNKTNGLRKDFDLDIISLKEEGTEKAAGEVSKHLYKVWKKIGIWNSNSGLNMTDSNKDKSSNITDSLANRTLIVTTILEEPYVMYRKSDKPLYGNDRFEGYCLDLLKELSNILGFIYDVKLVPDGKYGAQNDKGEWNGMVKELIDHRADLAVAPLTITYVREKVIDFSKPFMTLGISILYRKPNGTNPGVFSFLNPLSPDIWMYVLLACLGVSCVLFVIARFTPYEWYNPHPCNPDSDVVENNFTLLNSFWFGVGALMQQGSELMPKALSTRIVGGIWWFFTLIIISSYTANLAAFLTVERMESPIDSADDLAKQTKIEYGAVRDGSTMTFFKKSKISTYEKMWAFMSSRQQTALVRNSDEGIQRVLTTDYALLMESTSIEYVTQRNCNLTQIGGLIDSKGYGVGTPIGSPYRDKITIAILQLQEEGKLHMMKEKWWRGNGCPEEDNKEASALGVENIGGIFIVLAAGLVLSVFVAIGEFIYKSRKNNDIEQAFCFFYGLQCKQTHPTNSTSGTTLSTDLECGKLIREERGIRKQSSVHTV

Sequence of Glutamate receptor ionotropic, kainate 2 (GluK2/GRIK2) (Homo sapiens) (Q13002 whole entry, looked up): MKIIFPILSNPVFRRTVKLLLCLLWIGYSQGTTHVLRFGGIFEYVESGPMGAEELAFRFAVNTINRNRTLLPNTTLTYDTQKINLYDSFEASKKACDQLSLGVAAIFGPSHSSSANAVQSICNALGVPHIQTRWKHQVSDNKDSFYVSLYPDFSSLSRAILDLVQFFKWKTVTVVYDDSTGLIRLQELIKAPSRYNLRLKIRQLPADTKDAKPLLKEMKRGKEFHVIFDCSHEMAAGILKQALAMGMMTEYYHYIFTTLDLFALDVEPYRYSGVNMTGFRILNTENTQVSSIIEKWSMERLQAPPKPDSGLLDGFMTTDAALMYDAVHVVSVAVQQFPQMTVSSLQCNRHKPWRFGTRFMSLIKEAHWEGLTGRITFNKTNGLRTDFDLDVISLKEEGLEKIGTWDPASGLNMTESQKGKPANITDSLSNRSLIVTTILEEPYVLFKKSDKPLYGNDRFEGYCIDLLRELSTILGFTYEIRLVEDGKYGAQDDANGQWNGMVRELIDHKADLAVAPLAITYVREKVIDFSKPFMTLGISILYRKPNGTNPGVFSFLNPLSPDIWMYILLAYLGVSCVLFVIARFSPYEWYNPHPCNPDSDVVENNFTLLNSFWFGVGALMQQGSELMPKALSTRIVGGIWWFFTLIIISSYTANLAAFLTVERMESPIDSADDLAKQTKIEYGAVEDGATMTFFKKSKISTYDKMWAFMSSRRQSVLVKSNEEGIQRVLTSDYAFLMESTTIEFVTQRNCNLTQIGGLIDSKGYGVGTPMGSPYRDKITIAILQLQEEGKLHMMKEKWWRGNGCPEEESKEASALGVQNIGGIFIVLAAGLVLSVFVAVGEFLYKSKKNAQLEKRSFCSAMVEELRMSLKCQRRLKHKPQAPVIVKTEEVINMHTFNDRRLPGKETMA

Row | Structure (SMILES) | IC50 [1] [µM] | IC50 [2] [µM]
1 | CCOC(=O)c1c(N=NC#N)sc(-c2ccccc2)c1C [Ethyl 2-(cyanodiazenyl)-4-methyl-5-phenylthiophene-3-carboxylate] | 21 | 
2 | Cc1c(-c2ccccc2)sc(N)c1C(=O)OC(C)(C)C [Tert-Butyl 2-amino-4-methyl-5-phenylthiophene-3-carboxylate] | 3.6 | 
3 | CCOC(=O)c1c(N=C=S)sc(-c2ccccc2)c1C [2-isothiocyanato-4-methyl-5-phenylthiophene-3-carboxylate] | 3.5 | 
4 | N#Cc1cc2c(cc1[N+](=O)[O-])=NC(=O)C(=O)N=2 [7-nitro-2,3-dioxo-2,3-dihydroquinoxaline-6-carbonitrile] | 23 | 
5 | C[C@H](C[C@H](N)C(=O)O)C(=O)O [2-Amino-4-methyl-pentanedioic acid] | 4 | 
6 | CCCOC(=O)c1c(N)sc(-c2ccccc2)c1C [Propyl 2-amino-4-methyl-5-phenylthiophene-3-carboxylate] | 2.4 | 
7 | CCOC(=O)c1c(N)sc(-c2ccc(F)cc2)c1C [Ethyl 2-amino-5-(4-fluorophenyl)-4-methylthiophene-3-carboxylate] | 12 | 
8 | CCOC(=O)c1c(N)sc(-c2ccccc2)c1C [Ethyl 2-amino-4-methyl-5-phenylthiophene-3-carboxylate] | 0.75 | 
9 | COC(=O)c1c(N)sc(-c2ccccc2)c1C [Methyl 2-amino-4-methyl-5-phenylthiophene-3-carboxylate] | 4.1 | 30
10 | Clc1ccc(CO[C@@H](Cn2ccnc2)c2ccc(Cl)cc2Cl)c(Cl)c1 [Brentan] | 6.5 | 
11 | CCOC(=O)c1c(N=NN(C)C)sc(-c2ccccc2)c1C [Ethyl 2-(3,3-dimethyltriaz-1-enyl)-4-methyl-5-phenylthiophene-3-carboxylate] | 38 | 
12 | CCOC(=O)c1c(N=NN2CCOCC2)sc(-c2ccccc2)c1C [Ethyl 4-methyl-2-(morpholinodiazenyl)-5-phenylthiophene-3-carboxylate] | 54 | 
13 | CCOC(=O)c1c(N)sc(-c2ccccc2)c1-c1ccccc1 [Ethyl 2-amino-4,5-diphenylthiophene-3-carboxylate] | 4.5 | 
14 | CCOC(=O)c1c(Cl)sc(-c2ccccc2)c1C [Ethyl 2-chloro-4-methyl-5-phenylthiophene-3-carboxylate] | 10 | 
15 | Cc1c(-c2ccccc2)sc(N)c1C#N [2-Amino-4-methyl-5-phenylthiophene-3-carbonitrile] | 71 | 
16 | CCOC(=O)c1c(N)sc(-c2ccc(OC)cc2)c1C [Ethyl 2-amino-5-(4-methoxyphenyl)-4-methylthiophene-3-carboxylate] | 8.6 | 
17 | Cc1c(-c2ccccc2)sc(N)c1C(=O)c1ccccc1 [(2-Amino-4-methyl-5-phenylthiophen-3-yl)(phenyl)methanone] | 10.6 | 
18 | CCOC(=O)c1c(N)sc(-c2ccccc2Cl)c1C [Ethyl 2-amino-5-(2-chlorophenyl)-4-methylthiophene-3-carboxylate] | 5.7 | 
